This is an account of results in PubChem BioAssay (NCI).

Among the test systems are COLO 205 colon; HCC-2998 colon; NCI-H226 lung; HOP-92 NSCLC; OVCAR-5 ovarian; RPMI-8226 leukemia; HOP-62 NSCLC; CAKI-1 renal; SK-MEL-5 melanoma; HL-60(TB) leukemia.
Test in all cases: NCI anticancer screen, dose series, 48 h

Values joined by “and” are separate entries in the source; they are usually repeats but may differ in a detail not shown here. Identical values can stand only once.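 How tested: cells in 96-well plates exposed to compound for 48 hours at five concentrations. GI50 marks 50% less growth. The concentration for full growth arrest is given as TGI.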

Take `OCc1ccc(-c2ccc(-c3ccc(CO)o3)o2)o1`: the GI50 in the experiment on COLO 205 colon is 18.6 µM; in the experiment on HCC-2998 colon it was above 82 µM; with NCI-H226 lung it was 0.576 µM; in the experiment on HOP-92 NSCLC, above 49.6 µM; with OVCAR-5 ovarian it was 0.641 µM; with RPMI-8226 leukemia it was above 100 µM. For the same compound, the GI50 was 27.1 µM in the experiment with HOP-62 NSCLC, above 100 µM in the experiment on CAKI-1 renal, above 100 µM in the experiment on SK-MEL-5 melanoma and above 100 µM with HL-60(TB) leukemia. Further, the TGI in the experiment with COLO 205 colon was 48.2 µM; in the experiment with HCC-2998 colon, above 100 µM; in the experiment with NCI-H226 lung it was 2.59 µM; in the experiment with HOP-92 NSCLC, above 100 µM; in the experiment with OVCAR-5 ovarian it was 3 µM; in the experiment on RPMI-8226 leukemia, above 100 µM. Moreover, the TGI was above 78 µM in the experiment with HOP-62 NSCLC, above 100 µM in the experiment on CAKI-1 renal, above 100 µM in the experiment with SK-MEL-5 melanoma and above 100 µM with HL-60(TB) leukemia.

Turning to `O=C(CCCCN1CCN(CCCCC(=O)Nc2ccccc2C#C/C=C\C#Cc2ccccc2C(F)(F)F)CC1)Nc1ccccc1C#C/C=C\C#Cc1ccccc1C(F)(F)F`, the GI50 was 38.3 µM in the experiment with COLO 205 colon; 9.14 µM in the experiment with HCC-2998 colon; 40.7 µM in the experiment with NCI-H226 lung; 4.14 µM in the experiment on HOP-92 NSCLC; 14.4 µM in the experiment with OVCAR-5 ovarian; 7.46 µM in the experiment with RPMI-8226 leukemia. The GI50 is 12.2 µM with HOP-62 NSCLC, above 50 µM with CAKI-1 renal, 9.26 µM with SK-MEL-5 melanoma and 11.9 µM in the experiment on HL-60(TB) leukemia. For the same compound, the TGI with COLO 205 colon was above 50 µM; in the experiment on HCC-2998 colon, 17.5 µM; in the experiment on NCI-H226 lung it was above 50 µM; in the experiment with HOP-92 NSCLC, 11.5 µM; in the experiment on OVCAR-5 ovarian, above 50 µM; in the experiment with RPMI-8226 leukemia, 19.1 µM. Further, the TGI in the experiment on HOP-62 NSCLC was 32 µM; in the experiment with CAKI-1 renal, above 50 µM; in the experiment on SK-MEL-5 melanoma, 16.9 µM; with HL-60(TB) leukemia, 24.6 µM.

On to `O=C1Nc2ccc(-c3cccnc3)cc2/C1=C/c1cc(Br)c(O)c(Br)c1`, for which the GI50 was 11.8 µM in the experiment with COLO 205 colon; 8.58 µM in the experiment on HCC-2998 colon; 8.43 µM with NCI-H226 lung; 8.32 µM in the experiment with HOP-92 NSCLC; 15.6 µM in the experiment on OVCAR-5 ovarian; 5.38 µM with RPMI-8226 leukemia. Further, the GI50 is 8.43 µM in the experiment with HOP-62 NSCLC, 4.83 µM in the experiment with CAKI-1 renal, 3.95 µM with SK-MEL-5 melanoma and 6.97 µM in the experiment with HL-60(TB) leukemia. Also, the TGI is above 25 µM with COLO 205 colon; above 25 µM in the experiment on HCC-2998 colon; above 25 µM in the experiment with NCI-H226 lung; above 25 µM in the experiment on HOP-92 NSCLC; above 25 µM in the experiment with OVCAR-5 ovarian; 19.7 µM in the experiment on RPMI-8226 leukemia. Moreover, the TGI in the experiment with HOP-62 NSCLC was above 25 µM; in the experiment on CAKI-1 renal, above 23.7 µM; in the experiment on SK-MEL-5 melanoma, 7.78 µM; in the experiment with HL-60(TB) leukemia it was above 22.1 µM.

`CC(C)N(C(=O)C12C3C4C1C1C4(C#N)C3C12C(=O)O)C(C)C` (stereo unspecified): the TGI with COLO 205 colon was above 100 µM; with HCC-2998 colon it was above 100 µM; in the experiment with NCI-H226 lung, above 100 µM; in the experiment with HOP-92 NSCLC it was above 100 µM; in the experiment with OVCAR-5 ovarian it was above 100 µM; in the experiment on RPMI-8226 leukemia, above 66.7 µM. In addition, the TGI is above 100 µM with HOP-62 NSCLC, above 100 µM in the experiment with CAKI-1 renal, above 100 µM with SK-MEL-5 melanoma and above 63 µM in the experiment with HL-60(TB) leukemia.

For `CC[n+]1c(-c2ccccc2)c2cc(N)ccc2c2ccc(N)cc21`, the GI50 in the experiment with COLO 205 colon is 0.612 µM; in the experiment on HCC-2998 colon, 1.22 µM; in the experiment with NCI-H226 lung it was 0.504 µM and 0.723 µM and 2.65 µM; in the experiment with HOP-92 NSCLC, 1.24 µM; in the experiment on OVCAR-5 ovarian, 5.67 µM; with RPMI-8226 leukemia it was 2.23 µM and 1.02 µM and 2.64 µM. For the same compound, the GI50 was 0.863 µM and 7.4 µM and 2.38 µM in the experiment with HOP-62 NSCLC; 66.2 µM in the experiment on CAKI-1 renal; 0.864 µM with SK-MEL-5 melanoma. Moreover, the TGI with COLO 205 colon was 2.24 µM and 7.14 µM; in the experiment on HCC-2998 colon, 3.31 µM and 16.5 µM and 19.8 µM; in the experiment with NCI-H226 lung, 4.55 µM and 5.64 µM and 13.5 µM; in the experiment with HOP-92 NSCLC it was 10.6 µM and 14.6 µM; in the experiment on OVCAR-5 ovarian, 57.6 µM and > 100 µM; in the experiment with RPMI-8226 leukemia it was > 100 µM and 10.4 µM and 24.3 µM. In addition, the TGI in the experiment on CAKI-1 renal was above 100 µM; in the experiment with SK-MEL-5 melanoma it was 2.14 µM and 2.6 µM; in the experiment on HL-60(TB) leukemia, 18 µM and 26.9 µM and 47.6 µM.

Consider `O=c1c2ccccc2nc(-c2cccc(Cl)c2)n1NC1OC(CO)C(O)C(O)C1O` (stereo unspecified), for which the TGI in the experiment with COLO 205 colon, in the experiment on HCC-2998 colon, with NCI-H226 lung, with HOP-92 NSCLC, in the experiment with OVCAR-5 ovarian and with RPMI-8226 leukemia was above 100 µM in each case. Further, the TGI with HOP-62 NSCLC, in the experiment with CAKI-1 renal, in the experiment on SK-MEL-5 melanoma and in the experiment on HL-60(TB) leukemia was above 100 µM each time.

In the case of `COC(=O)c1ccc(NC(N)=NCCC(C)(C)c2ccc(C(F)(F)F)cc2)nc1`, the GI50 in the experiment on COLO 205 colon is 1.7 µM; with HCC-2998 colon, 1.79 µM; with NCI-H226 lung it was 3.33 µM; with HOP-92 NSCLC, 5.54 µM; in the experiment with OVCAR-5 ovarian it was 2.98 µM; in the experiment on RPMI-8226 leukemia it was 1.65 µM. Also, the GI50 in the experiment on HOP-62 NSCLC was 6.16 µM; in the experiment on CAKI-1 renal, 2.8 µM; in the experiment with SK-MEL-5 melanoma, 1.56 µM; in the experiment with HL-60(TB) leukemia, 1.74 µM. Moreover, the TGI in the experiment on COLO 205 colon came out at 3.41 µM; in the experiment with HCC-2998 colon, 3.64 µM; in the experiment on NCI-H226 lung, 18.8 µM; in the experiment with HOP-92 NSCLC, 23.8 µM; in the experiment on OVCAR-5 ovarian it was 13.5 µM; with RPMI-8226 leukemia it was 4.26 µM. Also, the TGI came out at 22 µM with HOP-62 NSCLC, 14.2 µM with CAKI-1 renal, 2.99 µM in the experiment on SK-MEL-5 melanoma and 3.71 µM in the experiment with HL-60(TB) leukemia.

Regarding `CO[C@H]1C(=O)[C@]2(C)[C@@H](OC)C[C@H]3OC[C@@]3(OC(C)=O)[C@H]2[C@H](OC(=O)c2ccccc2)[C@]2(O)C[C@H](OC(=O)[C@H](O)[C@@H](NC(=O)OC(C)(C)C)c3ccccc3)C(C)=C1C2(C)C`, the GI50 with COLO 205 colon is below 0.01 µM; with HCC-2998 colon, below 0.01 µM; in the experiment on NCI-H226 lung, 2.09 µM; with OVCAR-5 ovarian it was below 0.01 µM; in the experiment with RPMI-8226 leukemia, below 0.01 µM; in the experiment on HOP-62 NSCLC, below 0.01 µM. The GI50 with SK-MEL-5 melanoma and in the experiment with HL-60(TB) leukemia was below 0.01 µM throughout. Also, the TGI is 0.0103 µM with COLO 205 colon; below 0.0168 µM in the experiment with HCC-2998 colon; 39.7 µM with NCI-H226 lung; 33 µM in the experiment on HOP-92 NSCLC; 41.5 µM in the experiment with OVCAR-5 ovarian; above 38 µM in the experiment on RPMI-8226 leukemia. The TGI was above 80.4 µM in the experiment with HOP-62 NSCLC, above 52.9 µM with CAKI-1 renal, 17.3 µM in the experiment with SK-MEL-5 melanoma and below 0.01 µM in the experiment on HL-60(TB) leukemia.
